Data as given in patent US7812022B2 (GlaxoSmithKline LLC, priority 2004, dated 2010).
One block for each molecule: values may come before it.

What was measured:
[1] = system: BT474 and HN5 tumor cell lines; assay: Methylene blue growth inhibition assay (cellular Method A); format: cell-based, Human; details: Homo sapiens, BT-474, 72 h, 3 days, read-out: Activity (Method): growth inhibition IC50 class
Outline: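 Growth inhibition measured by methylene blue staining of biomass (OD 620) after 3 days' compound exposure at 37° C, final DMSO 0.3%. Cell lines: BT474 (10,000/well), HN5 (3,000/well) and Colo205, all in DMEM with 10% FBS; IC50 fitted by nonlinear regression against vehicle-treated wells.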

ErbB2 or EGFR = biological target: T1, ErbB2 or EGFR; assay: ErbB family substrate phosphorylation enzyme assay (HTRF), Method A or Method B; format: biochemical
T1 construct: enzymes purified from a baculovirus expression system; Reagent production was conducted essentially as described in Brignola, P. S., et al, (2002) J. Biol. Chem. 277(2): 1576-1585
Outline: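 Baculovirus-expressed EGFR or ErbB2 (0.8 or 10 nM in enzyme mix) phosphorylates biotinylated Peptide C with 20 µM ATP and 0.8 µM peptide (substrate-mix levels), MnCl2, pH 7.5. Reaction ran 90 min at 20 °C with EDTA stop and HTRF anti-phosphotyrosine read. Method A: enzyme added last; Method B: 1 h enzyme–compound preincubation.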

[2] = Method B: enzyme mix pre-incubated with compound 1 hour at 20° C., started with substrate mix
[3] = Method A: substrate mix added first, reaction started with enzyme mix

- IC50 [1]: < 100 nM
SMILES: O=C(Nc1cccc(-c2nn3ccccc3c2-c2ccnc(Nc3cccc(F)c3)n2)c1)c1c(F)cccc1Cl [Example 37, 2-Chloro-6-fluoro-N-[3-(3-{2-[(3-fluorophenyl)amino]-4-pyrimidinyl}pyrazolo[1,5-a]pyridin-2-yl)phenyl]benzamide]
- Activity (Method): pIC50 class against ErbB2 or EGFR (ErbB2 or EGFR; [2]): +++ (B) (at least one pIC50 measurement of greater than 7 against either ErbB2 or EGFR)

- IC50 [1]: < 100 nM
SMILES: Cc1cc(Nc2nccc(-c3c(-c4cccc(NC(=O)c5c(F)cccc5F)c4)nn4ccccc34)n2)ccc1C#N [Example 95]
- Activity (Method): pIC50 class against ErbB2 or EGFR (ErbB2 or EGFR; [2]): +++ (B) (at least one pIC50 measurement of greater than 7 against either ErbB2 or EGFR)

- IC50 [1]: < 100 nM
SMILES: O=C(Nc1cccc(-c2nn3ccccc3c2-c2ccnc(Nc3ccc(C(=O)N4CCOCC4)cc3)n2)c1)c1c(F)cccc1F [Example 100, 2,6-Difluoro-N-{3-[3-(2-{[4-(4-morpholinylcarbonyl)-phenyl]amino}-4-pyrimidinyl)pyrazolo[1,5-a]pyridin-2-yl]phenyl}benzamide]
- Activity (Method): pIC50 class against ErbB2 or EGFR (ErbB2 or EGFR; [3]): +++ (A) (at least one pIC50 measurement of greater than 7 against either ErbB2 or EGFR)

- IC50 [1]: 100 to 1000 nM
SMILES: Cc1cccc(C(=O)Nc2cccc(-c3nn4ccccc4c3-c3ccnc(Nc4cccc(F)c4)n3)c2)c1 [Example 18, N-(3-{3-[2-(3-Fluoro-phenylamino)-pyrimidin-4-yl]-pyrazolo[1,5-a]pyridin-2-yl}-phenyl)-3-methyl-benzamide]
- Activity (Method): pIC50 class against ErbB2 or EGFR (ErbB2 or EGFR; [2]): ++ (B) (at least one pIC50 measurement greater than 6 against either ErbB2 or EGFR but no measurement greater than pIC50 of 7)

- IC50 [1]: < 100 nM
SMILES: O=C(Nc1cccc(-c2nn3ccccc3c2-c2ccnc(Nc3ccccc3)n2)c1)c1c(F)cccc1F [Example 34, 2,6-Difluoro-N-(3-{3-[2-(phenylamino)-4-pyrimidinyl]pyrazolo[1,5-a]pyridin-2-yl}phenyl)benzamide]
- Activity (Method): pIC50 class against ErbB2 or EGFR (ErbB2 or EGFR; [2]): +++ (B) (at least one pIC50 measurement of greater than 7 against either ErbB2 or EGFR)

- IC50 [1]: 100 to 1000 nM
SMILES: O=C(Nc1cccc(-c2nn3ccccc3c2-c2ccnc(Nc3ccc(N4CCCCC4)c(F)c3)n2)c1)c1c(F)cccc1F [Example 147, 2,6-Difluoro-N-{3-[3-(2-{[3-fluoro-4-(1-piperidinyl)-phenyl]amino}-4-pyrimidinyl)pyrazolo[1,5-a]pyridin-2-yl]phenyl}benzamide]
- Activity (Method): pIC50 class against ErbB2 or EGFR (ErbB2 or EGFR; [3]): +++ (A) (at least one pIC50 measurement of greater than 7 against either ErbB2 or EGFR)

- IC50 [1]: < 100 nM
SMILES: O=C(Nc1cccc(-c2nn3ccccc3c2-c2ccnc(Nc3ccc4c(c3)CNCC4)n2)c1)c1c(F)cccc1F [Example 64, 2,6-Difluoro-N-(3-{3-[2-(1,2,3,4-tetrahydro-7-isoquinolinylamino)-4-pyrimidinyl]pyrazolo[1,5-a]pyridin-2-yl}phenyl)benzamide]
- Activity (Method): pIC50 class against ErbB2 or EGFR (ErbB2 or EGFR; [2]): +++ (B) (at least one pIC50 measurement of greater than 7 against either ErbB2 or EGFR)

- IC50 [1]: 100 to 1000 nM
SMILES: O=C(c1ccccc1)c1ccc(Nc2nccc(-c3c(-c4cccc(NC(=O)c5c(F)cccc5F)c4)nn4ccccc34)n2)cc1 [Example 98, 2,6-Difluoro-N-{3-[3-(2-{[4-(phenylcarbonyl)phenyl]-amino}-4-pyrimidinyl)pyrazolo[1,5-a]pyridin-2-yl]phenyl}benzamide]
- Activity (Method): pIC50 class against ErbB2 or EGFR (ErbB2 or EGFR; [3]): ++ (A) (at least one pIC50 measurement greater than 6 against either ErbB2 or EGFR but no measurement greater than pIC50 of 7)

- IC50 [1]: 100 to 1000 nM
SMILES: O=C(Nc1cccc(-c2nn3ccccc3c2-c2ccnc(Nc3cccc(C(F)(F)F)c3)n2)c1)c1c(F)cccc1F [Example 33, 2,6-Difluoro-N-{3-[3-(2-{[3-(trifluoromethyl)phenyl]-amino}-4-pyrimidinyl)pyrazolo[1,5-a]pyridin-2-yl]phenyl}benzamide]
- Activity (Method): pIC50 class against ErbB2 or EGFR (ErbB2 or EGFR; [3]): +++ (A) (at least one pIC50 measurement of greater than 7 against either ErbB2 or EGFR)

- IC50 [1]: 100 to 1000 nM
SMILES: N#Cc1cc(Nc2nccc(-c3c(-c4cccc(NC(=O)c5c(F)cccc5F)c4)nn4ccccc34)n2)ccc1-n1cccc1 [Example 90]
- Activity (Method): pIC50 class against ErbB2 or EGFR (ErbB2 or EGFR; [3]): ++ (A) (at least one pIC50 measurement greater than 6 against either ErbB2 or EGFR but no measurement greater than pIC50 of 7)

- IC50 [1]: 100 to 1000 nM
SMILES: COc1ccc(Nc2nccc(-c3c(-c4cccc(NC(=O)c5c(F)cccc5F)c4)nn4c(C)cccc34)n2)cc1F [Example 157, 2,6-Difluoro-N-[3-(3-{2-[(3-fluoro-4-methoxy-phenyl)amino]pyrimidin-4-yl}-7-methylpyrazolo[1,5-a]pyridin-2-yl)phenyl]benzamide]
- Activity (Method): pIC50 class against ErbB2 or EGFR (ErbB2 or EGFR; [3]): ++ (A) (at least one pIC50 measurement greater than 6 against either ErbB2 or EGFR but no measurement greater than pIC50 of 7)

- IC50 [1]: < 100 nM
SMILES: O=C(Nc1cccc(-c2nn3ccccc3c2-c2ccnc(Nc3cccc(F)c3)n2)c1)c1cccc(F)c1F [Example 14, 2,3-Difluoro-N-(3-{3-[2-(3-fluoro-phenylamino)-pyrimidin-4-yl]-pyrazolo[1,5-a]pyridin-2-yl}-phenyl)-benzamide]
- Activity (Method): pIC50 class against ErbB2 or EGFR (ErbB2 or EGFR; [2]): +++ (B) (at least one pIC50 measurement of greater than 7 against either ErbB2 or EGFR)

The next lines start with the molecule.

SMILES: O=C(Nc1cccc(-c2nn3ccccc3c2-c2ccnc(Nc3cccc(F)c3)n2)c1)c1ccno1 [Example 67, N-[3-(3-{2-[(3-fluorophenyl)amino]-4-pyrimidinyl}pyrazolo[1,5-a]pyridin-2-yl)phenyl]-5-isoxazolecarboxamide]
- IC50 [1]: 100 to 1000 nM
- Activity (Method): pIC50 class against ErbB2 or EGFR (ErbB2 or EGFR; [2]): +++ (B) (at least one pIC50 measurement of greater than 7 against either ErbB2 or EGFR)

SMILES: Cn1nnc2cc(C(=O)Nc3cccc(-c4nn5ccccc5c4-c4ccnc(Nc5cccc(F)c5)n4)c3)ccc21 [Example 26, N-[3-(3-{2-[(3-fluorophenyl)amino]-4-pyrimidinyl}pyrazolo[1,5-a]pyridin-2-yl)phenyl]-1-methyl-1H-1,2,3-benzotriazole-5-carboxamide]
- IC50 [1]: > 1000 nM
- Activity (Method): pIC50 class against ErbB2 or EGFR (ErbB2 or EGFR; [2]): ++ (B) (at least one pIC50 measurement greater than 6 against either ErbB2 or EGFR but no measurement greater than pIC50 of 7)

SMILES: COc1cccc(C(=S)Nc2cccc(-c3nn4ccccc4c3-c3ccnc(Nc4ccc5c(c4)OCCO5)n3)c2)c1 [Example 9, N-(3-{3-[2-(2,3-Dihydro-benzo[1,4-]dioxin-6-ylamino)-pyrimidin-4-yl]-pyrazolo[1,5-a]pyridin-2-yl}-phenyl)-3-methoxy-thiobenzamide]
- IC50 [1]: 100 to 1000 nM
- Activity (Method): pIC50 class against ErbB2 or EGFR (ErbB2 or EGFR; [3]): ++ (A) (at least one pIC50 measurement greater than 6 against either ErbB2 or EGFR but no measurement greater than pIC50 of 7)

SMILES: Cc1ccc(Nc2nccc(-c3c(-c4cccc(NC(=O)c5cc(F)ccc5F)c4)nn4ccccc34)n2)cc1S(N)(=O)=O [Example 52, N-{3-[3-(2-{[3-(Aminosulfonyl)-4-methylphenyl]amino}-4-pyrimidinyl)pyrazolo[1,5-a]pyridin-2-yl]phenyl}-2,5-difluorobenzamide]
- IC50 [1]: 100 to 1000 nM
- Activity (Method): pIC50 class against ErbB2 or EGFR (ErbB2 or EGFR; [3]): +++ (A) (at least one pIC50 measurement of greater than 7 against either ErbB2 or EGFR)

SMILES: Cc1cccc(C(=O)Nc2cccc(-c3nn4ccccc4c3-c3ccnc(Nc4cccc(F)c4)n3)c2)c1Cl [Example 70, 2-Chloro-N-[3-(3-{2-[(3-fluorophenyl)amino]-4-pyrimidinyl}pyrazolo[1,5-a]pyridin-2-yl)phenyl]-3-methylbenzamide]
- IC50 [1]: 100 to 1000 nM
- Activity (Method): pIC50 class against ErbB2 or EGFR (ErbB2 or EGFR; [2]): ++ (B) (at least one pIC50 measurement greater than 6 against either ErbB2 or EGFR but no measurement greater than pIC50 of 7)

SMILES: O=C(Nc1cccc(-c2nn3ccccc3c2-c2ccnc(Nc3cccc(F)c3)n2)c1)c1sccc1Cl [Example 79, 3-Chloro-N-[3-(3-{2-[(3-fluorophenyl)amino]-4-pyrimidinyl}pyrazolo[1,5-a]pyridin-2-yl)phenyl]-2-thiophenecarboxamide]
- IC50 [1]: 100 to 1000 nM
- Activity (Method): pIC50 class against ErbB2 or EGFR (ErbB2 or EGFR; [2]): ++ (B) (at least one pIC50 measurement greater than 6 against either ErbB2 or EGFR but no measurement greater than pIC50 of 7)

SMILES: Cn1cccc1C(=O)Nc1cccc(-c2nn3ccccc3c2-c2ccnc(Nc3ccc4c(c3)OCCO4)n2)c1 [Example 3, 1-Methyl-1H-pyrrole-2-carboxylic acid (3-{3-[2-(2,3-dihydro-benzo[1,4]dioxin-6-ylamino)-pyrimidin-4-yl]-pyrazolo[1,5-a]pyridin-2-yl}-phenyl)-amide]
- IC50 [1]: 100 to 1000 nM
- Activity (Method): pIC50 class against ErbB2 or EGFR (ErbB2 or EGFR; [3]): +++ (A) (at least one pIC50 measurement of greater than 7 against either ErbB2 or EGFR)

SMILES: Cn1cccc1C(=O)Nc1cccc(-c2nn3ccccc3c2-c2ccnc(Nc3cccc(F)c3)n2)c1 [Example 82, N-[3-(3-{2-[(3-fluorophenyl)amino]-4-pyrimidinyl}-pyrazolo[1,5-a]pyridin-2-yl)phenyl]-1-methyl-1H-pyrrole-2-carboxamide]
- IC50 [1]: 100 to 1000 nM
- Activity (Method): pIC50 class against ErbB2 or EGFR (ErbB2 or EGFR; [2]): +++ (B) (at least one pIC50 measurement of greater than 7 against either ErbB2 or EGFR)

SMILES: Cc1cccc2c(-c3ccnc(Nc4cccc(C(F)(F)F)c4)n3)c(-c3cccc(NC(=O)c4c(F)cccc4F)c3)nn12 [Example 155, 2,6-Difluoro-N-{3-[7-methyl-3-(2-{[3-(trifluoro-methyl)phenyl]amino}pyrimidin-4-yl)pyrazolo[1,5-a]pyridin-2-yl]phenyl}benzamide]
- IC50 [1]: 100 to 1000 nM
- Activity (Method): pIC50 class against ErbB2 or EGFR (ErbB2 or EGFR; [3]): ++ (A) (at least one pIC50 measurement greater than 6 against either ErbB2 or EGFR but no measurement greater than pIC50 of 7)
